Test results taken from ChEMBL document CHEMBL1240332, “Mechanisms, biology and inhibitors of deubiquitinating enzymes” (Nat Chem Biol, 2007).

Tests used:
Caspase-3 = target: T1, Caspase-3 (Homo sapiens, UniProt P42574); test: Inhibition of caspase3
T1 sequence (P42574 whole entry): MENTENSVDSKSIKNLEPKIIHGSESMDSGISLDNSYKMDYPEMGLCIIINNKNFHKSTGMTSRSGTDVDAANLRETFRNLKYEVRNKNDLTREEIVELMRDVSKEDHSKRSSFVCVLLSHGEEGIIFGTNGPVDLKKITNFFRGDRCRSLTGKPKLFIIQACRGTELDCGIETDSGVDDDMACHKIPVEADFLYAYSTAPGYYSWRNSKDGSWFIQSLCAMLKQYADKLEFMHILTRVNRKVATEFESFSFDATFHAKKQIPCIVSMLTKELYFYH

[1] = target: T2, Protein-glutamine gamma-glutamyltransferase (Homo sapiens, UniProt P21980); test: Inhibition of tissue transglutaminase
T2 sequence (P21980 whole entry): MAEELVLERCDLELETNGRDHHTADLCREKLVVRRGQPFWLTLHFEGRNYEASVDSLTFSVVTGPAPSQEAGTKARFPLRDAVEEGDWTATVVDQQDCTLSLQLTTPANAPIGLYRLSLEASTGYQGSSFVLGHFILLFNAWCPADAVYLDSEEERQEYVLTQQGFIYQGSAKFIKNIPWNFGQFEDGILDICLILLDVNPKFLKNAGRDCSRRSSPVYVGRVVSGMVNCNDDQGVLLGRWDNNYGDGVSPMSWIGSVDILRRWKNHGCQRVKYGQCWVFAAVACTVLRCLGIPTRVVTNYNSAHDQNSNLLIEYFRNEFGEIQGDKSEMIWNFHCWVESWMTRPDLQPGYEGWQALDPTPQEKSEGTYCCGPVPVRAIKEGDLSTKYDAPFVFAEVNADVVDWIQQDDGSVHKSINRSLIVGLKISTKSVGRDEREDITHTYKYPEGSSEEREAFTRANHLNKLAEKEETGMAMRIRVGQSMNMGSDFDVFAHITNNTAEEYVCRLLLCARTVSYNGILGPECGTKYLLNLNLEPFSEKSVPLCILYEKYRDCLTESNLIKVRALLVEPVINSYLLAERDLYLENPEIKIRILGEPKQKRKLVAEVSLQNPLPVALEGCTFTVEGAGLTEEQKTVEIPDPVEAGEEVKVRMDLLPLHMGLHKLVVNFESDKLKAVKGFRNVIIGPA

[2] = target: T3, Ubiquitin carboxyl-terminal hydrolase isozyme L3 (Homo sapiens, UniProt P15374); test: Inhibition of UCHL3
T3 sequence (P15374 whole entry): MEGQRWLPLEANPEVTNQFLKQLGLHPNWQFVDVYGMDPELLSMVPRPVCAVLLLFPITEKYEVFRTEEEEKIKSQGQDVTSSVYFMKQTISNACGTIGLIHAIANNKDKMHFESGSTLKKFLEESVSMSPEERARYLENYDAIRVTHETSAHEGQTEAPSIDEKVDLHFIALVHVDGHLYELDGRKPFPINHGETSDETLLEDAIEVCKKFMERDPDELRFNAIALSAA

[3] = target: T4, Ubiquitin carboxyl-terminal hydrolase 5 (Homo sapiens, UniProt P45974); test: Inhibition of isopeptidase T
T4 sequence (P45974 whole entry): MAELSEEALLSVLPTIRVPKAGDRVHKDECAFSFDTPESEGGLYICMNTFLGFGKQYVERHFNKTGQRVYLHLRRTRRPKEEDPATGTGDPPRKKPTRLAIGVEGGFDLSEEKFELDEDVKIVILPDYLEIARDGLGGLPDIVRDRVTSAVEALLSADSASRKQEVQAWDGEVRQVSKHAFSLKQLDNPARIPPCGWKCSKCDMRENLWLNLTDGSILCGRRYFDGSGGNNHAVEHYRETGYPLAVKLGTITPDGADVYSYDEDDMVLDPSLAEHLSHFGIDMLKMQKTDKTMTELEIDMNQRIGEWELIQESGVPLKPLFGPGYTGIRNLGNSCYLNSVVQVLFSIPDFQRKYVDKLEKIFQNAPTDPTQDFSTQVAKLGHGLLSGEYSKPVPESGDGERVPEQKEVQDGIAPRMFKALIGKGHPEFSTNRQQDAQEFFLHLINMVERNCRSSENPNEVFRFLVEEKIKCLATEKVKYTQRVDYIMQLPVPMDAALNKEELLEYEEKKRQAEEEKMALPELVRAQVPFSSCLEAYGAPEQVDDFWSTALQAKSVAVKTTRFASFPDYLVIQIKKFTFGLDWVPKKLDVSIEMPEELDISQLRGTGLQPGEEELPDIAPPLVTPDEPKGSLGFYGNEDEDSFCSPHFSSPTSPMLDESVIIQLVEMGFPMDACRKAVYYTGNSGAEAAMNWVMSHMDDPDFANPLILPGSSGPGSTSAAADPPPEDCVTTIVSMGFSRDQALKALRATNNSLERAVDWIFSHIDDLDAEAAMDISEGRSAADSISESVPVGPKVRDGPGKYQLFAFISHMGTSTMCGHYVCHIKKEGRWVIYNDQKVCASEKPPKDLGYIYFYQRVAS

[4] = target: T5, Ubiquitin carboxyl-terminal hydrolase isozyme L1 (Homo sapiens, UniProt P09936); test: Inhibition of UCHL1 in human H1299 cells; type: cell-based
T5 sequence (P09936 whole entry): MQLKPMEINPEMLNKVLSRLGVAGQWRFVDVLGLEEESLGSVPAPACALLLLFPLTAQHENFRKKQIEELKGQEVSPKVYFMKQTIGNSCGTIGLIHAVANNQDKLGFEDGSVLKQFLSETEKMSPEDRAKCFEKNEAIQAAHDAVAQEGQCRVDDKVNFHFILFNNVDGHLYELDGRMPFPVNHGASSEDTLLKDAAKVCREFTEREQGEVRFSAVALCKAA

[5] = target: T3, Ubiquitin carboxyl-terminal hydrolase isozyme L3; test: Inhibition of UCHL3 in human H1299 cells; type: cell-based

Compound	Ki (Caspase-3) [µM]	Ki [1] [µM]	Ki [2] [µM]	Ki [3] [µM]	IC50 [4] [µM]	IC50 [5] [µM]
Nc1c(C(=O)c2ccccc2)sc2[nH]c(=O)c(C(=O)O)cc12	> 100	> 100	> 100	> 100		
CCCCc1ccc(-c2n[nH]c(=S)n2-c2ccc(C(C)C)cc2)cc1					126	47
CC(=O)O/N=C1/C(=O)N(Cc2ccc(Cl)c(Cl)c2)c2ccc(Br)cc21					0.81	17
O=C1CC(=O)c2c(Cl)c(Cl)c(Cl)c(Cl)c21					75	0.6
CC1=CC(=O)c2ccccc2C1=O [MENADIONE]					290	71
CC(=O)O/N=C1/C(=O)N(Cc2ccc(Cl)c(Cl)c2)c2ccc(I)cc21					0.94	23
CC(=O)O/N=C1/C(=O)N(Cc2cc(Cl)ccc2Cl)c2ccc(Br)cc21					0.88	25
